Values of other authors, collected in patent US8048872B2, “Treatment of hyperproliferative diseases with vinca alkaloid N-oxide and analogs” (Stat of Oregon Acting by and Through The Oregon State Board …, priority 2006, dated 2011).
Read-outs that look alike come from different tables or passages of the source.

Conditions: cited from earlier work; for patients developing pneumonia: refractory chronic lymphocytic leukemia
[1] = melanoma, 200 mg/m^2/d PO days 1-5, every 28 days, Grade III-IV
[2] = melanoma, 200 mg/m^2/d PO days 1-5, every 28 days
[3] = acute promyelocytic leukemia patients

Compound: O=c1[nH]cc(F)c(=O)[nH]1 [5-Fluorouracil]
- Diarrhea (human, in vivo, iv): Diarrhea* 22%
- Hand-Foot Syndrome (human, in vivo, iv): Syndrome* 14%
- Leukopenia/Neutropenia Toxicity (human, in vivo, iv): Grade III-IV 0%
- Stomatitis (human, in vivo, iv): Stomatitis* 31%

Compound: CC1=C(/C=C/C(C)=C/C=C/C(C)=C/C(=O)O)C(C)(C)CCC1 [ATRA]
- Hepatotoxicity (Maintenance Therapy (n = 94)): Hepatotoxicity 5.3%
- Infection (Maintenance Therapy (n = 94)): Infection 7.4%
- Life-Threatening Toxicity (Maintenance Therapy (n = 94)): Toxicity 36%
- Neurotoxicity (Maintenance Therapy (n = 94)): Neurotoxicity 11.7%

Compound: CN(C)c1nc(N(C)C)nc(N(C)C)n1 [Altretamine]
- Anemia Grade III-IV (human, in vivo, iv): Anemia Grade III-IV 2%
- Fatigue (human, in vivo, iv): Fatigue 9%
- Nausea (human, in vivo, iv): Nausea 14%
- Neurologic (human, in vivo, iv): Neurologic 2%
- Vomiting (human, in vivo, iv): Vomiting 12%

Compound: O=NN(CCCl)C(=O)NCCCl [BCNU (carmustine)]
- Nausea/Vomiting (Grade III-IV): Nausea/Vomiting 5%
- Thrombocytopenia (Grade III-IV): Thrombocytopenia 21%
- Leukopenia (Grade III): Grade III 4%
- Leukopenia (Grade IV): Grade IV 1%

Compound: CCCCCOC(=O)Nc1nc(=O)n([C@@H]2O[C@H](C)[C@@H](O)[C@H]2O)cc1F [Capecitabine]
- Dehydration (human, in vivo, iv): Dehydration 4%
- Fatigue (human, in vivo, iv): Fatigue 7%
- Hyperbilirubinemia (human, in vivo, iv): 17.3%
- Hyperglycemia (human, in vivo, iv): Hyperglycemia 8.7%
- Leukopenia/Neutropenia Toxicity (human, in vivo, iv): Grade III-IV 3%
- Nausea (human, in vivo, iv): Nausea 4%
- Stomatitis (human, in vivo, iv): Stomatitis 3%
- Vomiting (human, in vivo, iv): Vomiting 4%
- Leukopenia (human, in vivo): Grade III 0.3%

Compound: N.N.[Cl][Pt][Cl] [Cisplatin]
- Anemia Grade III-IV (Grade III-IV): 11%
- Cardiovascular (Grade III-IV): Cardiovascular 2%
- Leukopenia (Grade III-IV): Grade III-IV 7%
- Neurologic (Grade III-IV): Neurologic 11%
- Neutropenic Fever (Grade III-IV): Neutropenic Fever <1%
- Renal (Grade III-IV): Renal 4%
- Leukopenia (Grade III): Grade III 18%
- Leukopenia (Grade IV): Grade IV 3%
- Hearing Loss (clinical) (human, in vivo): 12%

Compound: Nc1nc(Cl)nc2c1ncn2[C@H]1C[C@H](O)[C@@H](CO)O1 [Cladribine]
- Anemia Grade III-IV (Grade III-IV): 22%
- Documented Infection (Grade III-IV): Infections 13%
- Leukopenia/Neutropenia Toxicity (Grade III-IV): Grade III-IV 87%
- Neutropenic Fever (Grade III-IV): Neutropenic Fever 42%
- Thrombocytopenia (Grade III-IV): Thrombocytopenia 20%

Compound: Nc1ccn([C@@H]2O[C@H](CO)[C@@H](O)[C@@H]2O)c(=O)n1 [Cytarabine]
- CNS Toxicities (human, in vivo, iv): CNS Toxicities 12%
- CNS Toxicities (human, in vivo): (32% with age >60 yrs)

Compound: CN(C)/N=N/c1[nH]cnc1C(N)=O [Dacarbazine]
- Anemia Grade III-IV (human, in vivo, iv): Anemia Grade III-IV 6%
- Anemia Grade IV (human, in vivo, iv): Anemia Grade IV 1%
- Asthenia (Grade III) (human, in vivo, iv): Asthenia (Grade III) 1%
- Constipation (Grade III) (human, in vivo, iv): (Grade III) 3%
- Dyspnea (human, in vivo, iv): Dyspnea 1%
- Fatigue (Grade III) (human, in vivo, iv): Fatigue (Grade III) 2%
- Fever (Grade III) (human, in vivo, iv): Fever (Grade III) 2%
- Headache (Grade III) (human, in vivo, iv): Headache (Grade III) 1%
- Leukopenia without neutropenia Grade III (human, in vivo, iv): Grade III 1%
- Nausea (Grade III) (human, in vivo, iv): Nausea (Grade III) 4%
- Nausea/Vomiting (human, in vivo, iv): Nausea/Vomiting 5%
- Pain (Grade III) (human, in vivo, iv): Pain (Grade III) 13%
- Somnolence (Grade III) (human, in vivo, iv): (Grade III) 1%
- Vomiting (Grade III) (human, in vivo, iv): Vomiting (Grade III) 4%

Compound: CC(=O)O[C@@]12CO[C@@H]1C[C@H](O)[C@@]1(C)C(=O)[C@H](O)C3=C(C)[C@@H](OC(=O)[C@H](O)[C@@H](NC(=O)OC(C)(C)C)c4ccccc4)C[C@@](O)([C@@H](OC(=O)c4ccccc4)[C@H]21)C3(C)C [Docetaxel]
- Alopecia (Grade III-IV): Alopecia 13%
- Asthenia (Grade III-IV): Asthenia 16%
- Diarrhea (Grade III-IV): Diarrhea 8%
- Fatigue/Asthenia (Grade III-IV): Fatigue/Asthenia 10%
- Febrile Neutropenia (Grade III-IV): Febrile Neutropenia 33%
- Hypersensitivity Reaction (Grade III-IV): Reactions 3%
- Leukopenia/Neutropenia Toxicity (Grade III-IV): Grade III-IV 93%
- Nausea (Grade III-IV): Nausea 5%
- Nausea/Emesis (Grade III-IV): Nausea/Emesis 10%
- Neuropathy (Grade III-IV): Neuropathy 3%
- Neurosensory (Grade III-IV): Neurosensory 5%
- Neutropenic Fever (Grade III-IV): Neutropenic Fever 9%
- Severe Fluid Retention (Grade III-IV): 8%
- Stomatitis (Grade III-IV): Stomatitis 9%
- Thrombocytopenia (Grade III-IV): Thrombocytopenia 4%
- Vomiting (Grade III-IV): Vomiting 3%
- Granulocytopenia (Grade III): Grade III 6%
- Leukopenia (Grade III): Grade III 8%
- Thrombocytopenia (Grade III): (Grade III) 6%
- Granulocytopenia (Grade IV): Grade IV 72%
- Neutropenic Infection (human, in vivo, iv): (Grade III-IV) 11%

Compound: COc1cccc2c1C(=O)c1c(O)c3c(c(O)c1C2=O)C[C@@](O)(C(=O)CO)C[C@@H]3O[C@H]1C[C@H](N)[C@H](O)[C@H](C)O1 [Doxorubicin]
- Cardiotoxicity (human, in vivo, iv): Cardiotoxicity 1%
- Gastrointestinal (human, in vivo, iv): Gastrointestinal 3%
- Infection (human, in vivo, iv): Infection 3%
- Leukopenia/Neutropenia Toxicity (human, in vivo, iv): Grade III-IV 8%
- Leukopenia/Neutropenia Toxicity Grade III-IV (human, in vivo, iv): Grade III-IV 51%
- Leukopenia/Neutropenia Toxicity Grade IV (human, in vivo, iv): Grade IV 21%
- Mucositis (human, in vivo, iv): Mucositis 6%
- Nausea/Vomiting (human, in vivo, iv): Nausea/Vomiting 13%
- Thrombocytopenia (human, in vivo, iv): Thrombocytopenia 2%

Compound: Nc1nc(F)nc2c1ncn2[C@@H]1O[C@H](CO)[C@@H](O)[C@@H]1O [Fludarabine]
- Diarrhea (Grade III-IV): Diarrhea 2%
- Nausea (Grade III-IV): Nausea 3%
- Neuropathy (Grade III-IV): Neuropathy 4%
- Stomatitis (Grade III-IV): Stomatitis 2%
- Thrombocytopenia (Grade III-IV): Thrombocytopenia 25%
- Neutropenia (Grade IV (of cycles)): Neutropenia 56%
- Febrile Infection During Cycles 1-3 (human, in vivo): Cycles 1-3 30%

Compound: CN(Cc1cnc2nc(N)nc(N)c2n1)c1ccc(C(=O)N[C@@H](CCC(=O)O)C(=O)O)cc1 [Methotrexate]
- Hepatotoxicity (Grade III) (human, in vivo): 24.4% (all ages)
- Hepatotoxicity (Grade IV) (human, in vivo): 2.4% (all ages)

Compound: CC(=O)O[C@H]1C(=O)[C@@]2(C)[C@H]([C@H](OC(=O)c3ccccc3)[C@]3(O)C[C@H](OC(=O)[C@H](O)[C@@H](NC(=O)c4ccccc4)c4ccccc4)C(C)=C1C3(C)C)[C@]1(OC(C)=O)CO[C@@H]1C[C@@H]2O [Paclitaxel]
- Increased AST (human, in vivo, iv): Increased AST 5%
- Leukopenia/Neutropenia Toxicity (human, in vivo, iv): Grade III-IV 23%

Compound: Cn1nnc2c(C(N)=O)ncn2c1=O [Temozolomide]
- Anemia Grade III-IV (Grade III-IV): Anemia Grade III-IV 1%
- Asthenia (Grade III-IV): Asthenia 6%
- Fatigue (Grade III-IV): Fatigue 5%
- Fever (Grade III-IV): Fever 2%
- Headache (Grade III-IV): Headache 6%
- Nausea (Grade III-IV): Nausea 10%
- Thrombocytopenia (Grade III-IV): Thrombocytopenia 6%
- Vomiting (Grade III-IV): Vomiting 6%
- Leukopenia (grade not given): Leukopenia 2%
- Neutropenia (grade not given): Neutropenia 2%
- Fever [1]: Fever 2%
- Headache [1]: Headache 6%
- Thrombocytopenia [1]: Thrombocytopenia 7%
- Vomiting [1]: Vomiting 5%
- Anemia Grade III-IV [2]: Anemia Grade III-IV 2%
- Asthenia (Grade III) [2]: Asthenia (Grade III) 3%
- Constipation (Grade III) [2]: (Grade III) 3%
- Fatigue (Grade III) [2]: Fatigue (Grade III) 3%
- Nausea (Grade III) [2]: Nausea (Grade III) 4%
- Neutropenia Grade III [2]: Grade III 1%
- Neutropenia Grade IV [2]: Grade IV 2%
- Pain (Grade III) [2]: Pain (Grade III) 7%

Compound: O=C1CCC(N2C(=O)c3ccccc3C2=O)C(=O)N1 (centres unmarked) [Thalidomide]
- Anemia Grade III-IV (human, in vivo): 3.6%
- Thrombocytopenia (human, in vivo): Thrombocytopenia 3.6%

Compound: CC[C@@]1(O)C(=O)OCc2c1cc1n(c2=O)Cc2cc3c(CN(C)C)c(O)ccc3nc2-1 [Topotecan]
- Anorexia (human, in vivo, iv): Anorexia 1%
- Diarrhea (human, in vivo, iv): Diarrhea 1%
- Fatigue (human, in vivo, iv): Fatigue 5%
- Neutropenic Sepsis (human, in vivo, iv): Neutropenic Sepsis 5%
- Sepsis (human, in vivo, iv): Sepsis 9%
- Severe Bleed (human, in vivo, iv): Severe Bleed <1%
- Stomatitis (human, in vivo, iv): Stomatitis 2%
- Leukopenia/Neutropenia Toxicity (human, in vivo): Grade III 15%

Compound: CCC1=C[C@@H]2CN(C1)Cc1c([nH]c3ccccc13)[C@@](C(=O)OC)(c1cc3c(cc1OC)N(C)[C@H]1[C@@](O)(C(=O)OC)[C@H](OC(C)=O)[C@]4(CC)C=CCN5CC[C@]31[C@@H]54)C2 [Vinorelbine]
- Anemia Grade III-IV (human, in vivo, iv): Anemia Grade III-IV 5%
- Constipation (human, in vivo, iv): Constipation 3%
- Diarrhea (human, in vivo, iv): 4%
- Neurologic (human, in vivo, iv): Neurologic 9%
- Neuropathy (human, in vivo, iv): Neuropathy 1%
- Neutropenic Infection (human, in vivo, iv): <1%
- Neutropenic Sepsis (human, in vivo, iv): Neutropenic Sepsis 3%
- Stomatitis (human, in vivo, iv): Stomatitis <1%
- Thrombocytopenia (human, in vivo, iv): Thrombocytopenia 1%

Compound: CC1=C(/C=C/C(C)=C/C=C/C(C)=C/C(=O)O)C(C)(C)CCC1 [all-trans-retinoic acid, reference compound]
- lethal pulmonary toxicity [3]: 2%
- life-threatening pulmonary toxicity [3]: 11%
- patients developing grade III or IV pulmonary toxicity (total) [3]: Twenty
- severe pulmonary toxicity [3]: 7%

Compound: Nc1nc(F)nc2c1ncn2[C@@H]1O[C@H](COP(=O)(O)O)[C@@H](O)[C@@H]1O [fludarabine phosphate, reference compound]
- patients developing pneumonia (15-25 mg/m^2 daily for five days every 28 days): 22%
- patients developing pneumonia (22-40 mg/m^2 daily for five days every 28 days): 16%

Compound: Nc1ccn([C@@H]2O[C@H](CO)[C@@H](O)C2(F)F)c(=O)n1 [gemcitabine, reference compound]
- Constipation (human, in vivo, iv): Constipation 3%
- Deep Vein Thrombosis (human, in vivo, iv): 3%
- Diarrhea (human, in vivo, iv): Diarrhea 2%
- Edema (human, in vivo, iv): Edema 5%
- Fever (human, in vivo, iv): Fever 3%
- Increased Bilirubin (human, in vivo, iv): Increased Bilirubin 41%
- Neutropenic Fever (human, in vivo, iv): Neutropenic Fever 3%
- Pain (human, in vivo, iv): Pain 2%
- Respiratory (human, in vivo, iv): Respiratory 5%
- State of Consciousness (human, in vivo, iv): Consciousness 2%
- patients with grade III-IV respiratory toxicity (human, in vivo, iv): 2 out of 40
- Anemia Grade III (human, in vivo): Anemia Grade III 14.3%
- Hepatotoxicity (human, in vivo): (Grade III) 14.3%
- Infection (human, in vivo): (Grade III) 3.6%
- Leukopenia (human, in vivo): 10.7%
- Leukopenia/Neutropenia Toxicity (human, in vivo): Grade III 19%
- Skin Rash (human, in vivo): (Grade III) 3.6%

Compound: Alemtuzumab
- Anemia Grade III-IV (Grade III-IV): 38%
- Bronchitis/Pneumonitis (Grade III-IV): 13%
- Dyspnea (Grade III-IV): Dyspnea 9%
- Fatigue (Grade III-IV): Fatigue 5%
- Fever (Grade III-IV): Fever 19%
- Hypotension (Grade III-IV): Hypotension 5%
- Neutropenia (Grade III-IV): 64%
- Pneumonia (Grade III-IV): Pneumonia 10%
- Rigors (Grade III-IV): Rigors 16%
- Sepsis (Grade III-IV): Sepsis 10%
- Thrombocytopenia (Grade III-IV): Thrombocytopenia 50%
- Urticaria (Grade III-IV): Urticaria 5%
